# Laboratory results from patent US20140287925A1, “SOLUTIONS OF CIPC AND OF A TERPENE OR OF A TERPENE OIL AND THEIR USES FOR THE ANTIGERMINATIVE TREATMENT OF BULBS OR TUBERS” (priority 2003, published 2014).
# Assays:
# [1] = Solubility of CIPC (maximum concentration obtained in solvents); assay type: physicochemical; conditions: in terpenes and/or terpene oils, clear solutions, at room temperature or even as low as 0° C.
# Description: Moreover, CIPC is sparingly soluble in conventional solvents, and maximum CIPC concentrations of the order of 30% (weight/volume) are generally obtained. At best, concentrations of the order of about 54% at 180° C. have been obtained. This low solubility therefore implies the use of large quantities of solvent and/or of formulation in order to obtain the required quantities of active formula. Now, it is sought in general to limit the use of these solvents because of their own toxicity and/or of the danger involved in using them, in particular because of their low boiling points which cause high risks of inflammability.
# It has now been discovered, and that is one of the subjects of the present invention, that terpenes and/or terpene oils have a high CIPC-dissolving power. In particular, the use of such terpenes and/or terpene oils makes it possible to obtain clear CIPC solutions and to reach CIPC concentrations greater than 50% by weight of CIPC relative to the total volume of the solution, at room temperature, or even temperatures as low as 0° C. Consequently, the formulations of the present invention make it possible to limit the quantity of formulated product to be used.
# [2] = cited from earlier work
smiles,measurement,setting,value
"CC(C)OC(=O)Nc1cccc(Cl)c1 [CIPC, isopropyl (3-chlorophenyl)carbamate]",CIPC concentration reached,[1],greater than 50 % by weight of CIPC relative to the total volume of the solution
same,CIPC concentration obtained at best,"[2]; conventional solvents, at 180° C.",about 54%
same,maximum CIPC concentration,[2]; in conventional solvents,~30 % (weight/volume)
